For 1 compound, Tmax, bioavailability and Vd results are on record in ChEMBL document CHEMBL3832073, “DailyMed|setid=217e52b5-3a7b-4bbe-af3c-b18de7d426c3 | ABILIFY - aripiprazole tablet|Rebel Distributors Corp”.

Molecules are shown by their SMILES.

Data set [1] can be described thus: Evaluation of pharmacokinetic parameters for Aripiprazole following single oral administration of azipiprazole. The class given is ADME, organism-based. The conditions noted are these: human, in vivo, dosed compound id 19, dosed compound name ARIPIPRAZOLE, regimen Single dose, tissue Plasma.
A short description of data set [2]: Evaluation of pharmacokinetic parameters for Aripiprazole following oral, intravenous or intramuscular administration of azipiprazole. The class given is ADME, organism-based. The conditions noted are these: human, in vivo, dosed compound id 19, dosed compound name ARIPIPRAZOLE, tissue Plasma.

Regarding `O=C1CCc2ccc(OCCCCN3CCN(c4cccc(Cl)c4Cl)CC3)cc2N1` [ARIPIPRAZOLE], the Tmax (usually the time from dosing to the highest level) in data set [1] was 3 to 5 h; in data set [2] (im, gender male and female, route intramuscular), 1 h. Also, in data set [2] (im, at 5 mg, gender male and female, route intramuscular), the bioavailability – broadly, the share of a dose that reaches the circulation, judged against a reference dose that is usually intravenous – is 100%. The Vd in data set [2] (route iv, read-out: Vss) stood at 404 L.
